{
  "source": "paper PMC11431997",
  "about": "“Baicalin Inhibits FIPV Infection In Vitro by Modulating the PI3K-AKT Pathway and Apoptosis Pathway” (International Journal of Molecular Sciences, 2024)",
  "key": {"[1]": {"system": "PI3K-AKT signaling pathway and apoptosis pathway", "test": "4D-LFQ proteomics of FIPV-infected CRFK cells", "type": "cell-based, feline", "details": "48 h", "text": "According to the methods of Section 4.6, post-infection cells were collected at the appropriate time of infection and then quickly frozen in liquid nitrogen. The cell control group was named the control group (Group C), the virus control group was named the FIPV group (Group F), the compound treatment group was named the treatment group (Group T), and each group contained three replicate samples. Afterwards, they were sent to Shanghai Applied Protein Technology Co., Ltd. (Shanghai, China) for 4D-LFQ proteomics analysis."}, "[2]": {"test": "Cytotoxicity assay of the compounds (CCK-8)", "type": "cell-based, feline", "details": "cat", "protocol": "(§1) CRFK cells were seeded in 96-well cell culture plates at a density of 1 × 10^4 cells/well and incubated at 37 °C with 5% CO2 until the cell density reached more than 90%. Then, the medium was discarded, and the cells were washed twice with PBS. The compound to be tested was diluted in 10 successive gradients with MM at a 2-fold multiplicity (at the same time, there was a cell control group of 100 μL of MM, and 3 replicate wells were set for each concentration and group) and incubated at 37 °C with 5% CO2 for 72 h; then, the liquid in the plate was discarded and washed twice with PBS. Afterwards, the cytopathic ratios (CRs) of the compounds to cells were calculated according to the instructions of the Cell Counting Kit-8 (MCE, NJ, USA), and the CC50s of the compounds and the MNTCs at which the compounds could survive more than 90% of the cells were calculated using GraphPad Prism 10. In subsequent experiments, the final concentrations of the compounds after addition were the MNTCs of the compounds unless otherwise specified."}, "CRFK cells": {"system": "CRFK cells", "test": "Cytotoxicity assay of the compounds (CCK-8)", "type": "cell-based, feline", "details": "cat, 72 h", "protocol": "as §1"}, "FIPV (BJ-01) [3]": {"system": "FIPV (BJ-01)", "test": "Inhibitory effects of compounds on FIPV-infected cells (compound and FIPV added simultaneously, CCK-8)", "type": "cell-based, feline infectious peritonitis virus", "protocol": "According to previous methods, CRFK cells were seeded in 96-well cell culture plates at a density of 1 × 10^4 cells/well and cultured at 37 °C in 5% CO2 until the cell density was greater than 90%. After the cells were washed twice with PBS, 50 μL of test compound and 50 μL of FIPV were added to each well simultaneously (at the same time, a cell control group with only 100 μL of MM and a viral control group with only 100 μL of FIPV were added). There were 3 replicate wells for each compound and group. After 72 h of incubation at 37 °C and 5% CO2, the liquid in the plate was discarded, and the cells were washed twice with PBS. The MIR of the compounds to the virus was calculated according to the instructions of the Cell Counting Kit-8. Afterwards, the compounds with MIR > 50% were diluted to 8 concentrations with MM, and the above process was repeated. Then, the EC50 values of the compounds were calculated with GraphPad Prism 10."}, "FIPV (BJ-01) [4]": {"system": "FIPV (BJ-01)", "test": "Impact of the compound on FIPV replication (compound added after infection, CCK-8)", "type": "cell-based, feline infectious peritonitis virus", "protocol": "According to previous methods, CRFK cells were seeded in 96-well cell culture plates at a density of 1 × 10^4 cells/well and cultured at 37 °C in 5% CO2 until the cell density was greater than 90%. Then, the medium was discarded, and the cells were washed twice with PBS. FIPV was first added into 96-well cell culture plates at 100 μL/well then incubated at 37 °C and 5% CO2 for 1, 2, 4, 6, 8, 10, 12, and 14 h, respectively. After that, the viral solution was discarded and washed with PBS twice and then the compound was added at 100 μL/well and incubated at 37 °C and 5% CO2 (at the same time, a cell control group with only 100 μL of MM and a viral control group with only 100 μL of FIPV were added). There were 3 replicate wells for each compound and group. After the CPE of the viral control group reached more than 80%, the liquid in the culture plate was removed and washed twice with PBS. Afterwards, the IR of the compounds against the virus was computed according to the directions of the Cell Counting Kit-8."}, "FIPV (BJ-01) [5]": {"system": "FIPV (BJ-01)", "test": "Impact of the compound on FIPV adsorption (cells pre-incubated with compound, CCK-8)", "type": "cell-based, feline infectious peritonitis virus", "details": "cells co-cultured with baicalin before FIPV, all times", "protocol": "According to previous methods, CRFK cells were seeded in 96-well cell culture plates at a density of 1 × 10^4 cells/well and cultured at 37 °C in 5% CO2 until the cell density was greater than 90%. Then, the medium was discarded, and the cells were washed twice with PBS. The compound was first added into 96-well cell culture plates at 100 μL/well and then incubated at 37 °C and 5% CO2 for […], 1, 2, 4, and 6 h, respectively, then incubated at 4 °C for 1 h. After that, the liquid in the plates was removed and washed with PBS twice. Then, added FIPV into cells at 100 μL/well and incubated at 37 °C and 5% CO2 (at the same time, a cell control group with only 100 μL of MM and a viral control group with only 100 μL of FIPV were added). There were 3 replicate wells for each compound and group. After the CPE of the viral control group reached more than 80%, the liquid in the culture plate was removed and washed twice with PBS. Afterwards, the IR of the compounds against the virus was computed according to the directions of the Cell Counting Kit-8."}, "[6]": {"details": "treatment/FIPV comparison group"}},
  "note": "“And” between values parts separate entries of the source, which are not always exact repeats. Identical values can stand only once.",
  "data": [
    {"smiles": "O=C(O)[C@H]1O[C@@H](Oc2cc3oc(-c4ccccc4)cc(=O)c3c(O)c2O)[C@H](O)[C@@H](O)[C@@H]1O", "note": "[Baicalin]", "values": [
      {"measurement": "AKT2 level (4D-LFQ)", "setting": "[1]; treatment group vs FIPV group", "result": "significantly upregulated"},
      {"measurement": "AKT3 level (4D-LFQ)", "setting": "[1]; treatment group vs FIPV group", "result": "tended to increase"},
      {"measurement": "EGFR level (4D-LFQ)", "setting": "[1]; treatment group vs FIPV group", "result": "significantly upregulated"},
      {"measurement": "PIK3CA level (4D-LFQ)", "setting": "[1]; treatment group vs FIPV group", "result": "significantly upregulated"},
      {"measurement": "BAX level (4D-LFQ)", "setting": "[1]; [6]", "result": "downregulated but not significant"},
      {"measurement": "BCL2L level (4D-LFQ)", "setting": "[1]; [6]", "result": "upregulated but not significant"},
      {"measurement": "CASP9 level (4D-LFQ)", "setting": "[1]; [6]", "result": "significantly downregulated"},
      {"measurement": "CC50 at 72 h", "setting": "[2]", "result": 114, "unit": "µg/mL"},
      {"measurement": "MNTC (maximum noncytotoxic concentration)", "setting": "CRFK cells", "result": 31.36, "unit": "µg/mL"},
      {"measurement": "EC50", "setting": "FIPV (BJ-01) [3]; Alphacoronavirus 1, FIPV in CRFK cells, gradient dilution, 72 h, CCK-8", "result": 20.8, "unit": "µg/mL"},
      {"measurement": "SI (CC50/EC50)", "setting": "FIPV (BJ-01) [3]; FIPV, CRFK cells", "result": "> 3 and 5.5"},
      {"measurement": "inhibition rate on FIPV (replication blocking)", "setting": "FIPV (BJ-01) [4]; baicalin added after 10 h of infection", "result": "significantly reduced"},
      {"measurement": "inhibition rate on FIPV (replication blocking)", "setting": "FIPV (BJ-01) [4]; baicalin added within 8 h of FIPV infection of CRFK cells", "result": "more than 50%"},
      {"measurement": "inhibition rate on FIPV infection (adsorption)", "setting": "FIPV (BJ-01) [5]", "result": "≤ 50", "unit": "%"}
    ]}
  ]
}
